These results are taken from patent US10507206B2, “Oral formulations and lipophilic salts of methylnaltrexone” (Wyeth, LLC, priority 2010, dated 2019).

Broadly, the Log P is the decadic logarithm of the partition coefficient of the neutral form, usually between octanol and water.

The conditions of data set [1]: oral, in general; cited from earlier work.
The test system of data set [2] is constipation in methadone maintenance patients. The following applies: intravenous 0.01-0.37 mg/kg; cited from earlier work.
The conditions of data set [3]: intravenous 0.01-0.37 mg/kg, methadone maintenance patients; cited from earlier work.
For data set [4] the following is noted: reported value for comparison; cited from earlier work.
A short description of data set [5]: apparent octanol-water partition coefficient (APC) of MNTX salts by HPLC. The class given is physicochemical. The following applies: 1-octanol/water, aqueous phase pH between 4.5 and 6.8; for Log P: room temperature; for APC: shaken overnight at room temperature. The text has this: The term “apparent partition coefficient,” as used herein, refers to the ratio of concentrations of a compound in any form in the two phases of a mixture of two immiscible solvents at equilibrium. In certain embodiments, the two immiscible solvents are octanol and water. The apparent partition coefficient may be determined under various conditions, for example, temperature, pH, concentration, etc. Apparent partition coefficients have been found useful in estimating the distribution of compounds in the body. Higher apparent partition coefficients denote a more hydrophobic (more lipophilic) compound, while lower apparent partition coefficients denote a hydrophilic compound. The apparent partition coefficient of a compound may be determined by procedures known in the art, for example, in the U.S. Pharmacopeia. The apparent partition coefficient may be determined by the procedure used to determine the apparent partition coefficients of methylnaltrexone dodecyl sulfate and methylnaltrexone heptyl sulfate in the Examples.
As a measure of lipophilicity of the resulting ion pair, a solution of the composition yields an apparent octanol/water partition coefficient for methylnaltrexone of at least 0.25 at a pH between 1 and 4. The apparent octanol/water partition coefficient as used herein is determined at room temperature at a concentration of approximately 0.5 mg/mL. Exemplary methods for the determination of apparent octanol/water partition coefficient of methylnaltrexone salts are described in the Examples below.
Ion pairs of methylnaltrexone with amphiphilic pharmaceutically acceptable excipients were prepared and the apparent octanol-water partition coefficient (APC) was measured and compared to that of methylnaltrexone bromide. A pre-determined amount of each of MNTX-heptyl sulfate and MNTX-dodecyl sulfate was dissolved in 2 mL of 1-octanol that was saturated with water. Two mL of water that was saturated with 1-octanol was added to each MNTX salt solution. The mixtures were shaken overnight at room temperature, and 1 mL of the 1-octanol phase was then diluted to 10 mL with the mobile phase used for chromatographic (HPLC) analysis of the samples. And 1 mL of the aqueous phase was diluted to 5 mL with the mobile phase. The samples were then analyzed by HPLC to determine the apparent partition coefficient and log P for each MNTX salt. The pH of the aqueous phases for each of the salts was between 4.5 and 6.8.

With `C[N+]1(CC2CC2)CC[C@]23c4c5ccc(O)c4O[C@H]2C(=O)CC[C@@]3(O)[C@H]1C5` (stereo partly drawn) [methylnaltrexone, (R)—N-methylnaltrexone], the “methylnaltrexone absorbed into the bloodstream when delivered orally” value in data set [1] is reported as “less than 5%”. The laxation entry in data set [2] is recorded as “induced “immediate” laxation”. In addition, in data set [3], the “average peak plasma levels” value is 162 ng/mL and the “peak plasma levels, range” value was 30 to 774 ng/mL.
For `C[N@+]1(CC2CC2)CC[C@]23c4c5ccc(O)c4O[C@H]2C(=O)CC[C@@]3(O)[C@H]1C5.[Br-]` [MNTX, (R)—N-(cyclopropylmethyl) noroxymorphone methobromide], in data set [4], the “reported Log P” value is on record as −1.605 and the reported partition coefficient is given as 0.025.
In the case of `CCCCCCCOS(=O)(=O)[O-].C[N+]1(CC2CC2)CCC23c4c5ccc(O)c4OC2C(=O)CCC3(O)C1C5` (stereo not shown) [MNTX-heptyl sulfate, methylnaltrexone heptyl sulfate], in data set [5], the “Log P” value came out at 0.292 and the APC was found to be 1.961.
In the same order, the values of “methylnaltrexone dodecyl sulfate [MNTX-dodecyl sulfate]” are 1.505 and 32.014.
